pIC50: −log10 of the molar value. Starred links: 1 amine or outer side, 2 acyl side, 3 side chain; linkers in the order of their positions; H or OH if unused. Positions of bridges follow the written chain, without caps; N, C: chain ends. Non-standard residues stand in square brackets, D forms with d. Residues, ends and D or L forms follow the SMILES beside them. Phe(3-OCH2COOH) = N[C@@H](Cc1cccc(OCC(=O)O)c1)C(=O)O; Phe(4-COOH) = N[C@@H](Cc1ccc(C(=O)O)cc1)C(=O)O; Gly(N(CH2)3COOH) = O=C(O)CCCNCC(=O)O; Gly(octyl) = CCCCCCCC[C@H](N)C(=O)O; NMe3Pal = CN[C@@H](Cc1cccnc1)C(=O)O; X1 = CCCCCCC[C@H](N[*:1])C(=O)[*:2]; NMeF = CN[C@@H](Cc1ccccc1)C(=O)O; Aoc(2) = CCCCCC[C@H](N)C(=O)O; Ahp(2) = CCCCC[C@H](N)C(=O)O; NMeA = CN[C@@H](C)C(=O)O; Sar = CNCC(=O)O
Tests used:
Format in all cases: cell-based
[1] = target: T1, GDF-11 (Homo sapiens, UniProt O95390); assay: Reporter gene assay for myostatin signaling in HepG2 cell line, Evaluation Procedure (1), GDF-11 inhibition; conditions: Method A: GDF-11 10 ng/mL; read-out: IC50 (Luciferase) GDF-11 HepG2
T1 construct: purchased R&D systems 1958-GD-G8/CF
T1 sequence (O95390 299-407): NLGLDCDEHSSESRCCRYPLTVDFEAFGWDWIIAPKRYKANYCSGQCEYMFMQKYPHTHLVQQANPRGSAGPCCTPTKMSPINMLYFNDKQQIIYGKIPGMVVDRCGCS
How it was run: (§1)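 HepG2 cells transfected with pGL3(CAGA)12-luciferase reporter, serum-starved in 0.1% BSA medium, then stimulated with myostatin or GDF-11 plus 4-fold peptide dilutions (0.006–100 nmol/L for myostatin, 0.12–2000 nmol/L for GDF-11) for 20–24 h at 37 °C. Luminescence read with One-Glo; IC50 calculated.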

[2] = target: T2, Myostatin (Homo sapiens, UniProt O14793); assay: Reporter gene assay for myostatin signaling in HepG2 cell line, Evaluation Procedure (1), myostatin inhibition; conditions: Method A: Myostatin 10 ng/mL; read-out: IC50 (Luciferase) Myostatin HepG2
T2 construct: active myostatin (also called mature myostatin) is a homodimer consisting of two C-terminal growth factor domains; purchased R&D systems 788-G8/CF
T2 sequence (O14793 267-375): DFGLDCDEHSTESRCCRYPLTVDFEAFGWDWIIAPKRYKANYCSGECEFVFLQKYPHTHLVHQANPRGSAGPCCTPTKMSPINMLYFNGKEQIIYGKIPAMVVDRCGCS
How it was run: as §1

[3] = test system: Myostatin; assay: as above; conditions: Method A; GDF-11 IC50 versus Myostatin IC50
How it was run: as §1

Row | pIC50 [1] | pIC50 [2] | SMILES | Selectivity [3]
1 | 6.63 | 8.96 | CCCCCCC[C@@H]1NC(=O)[C@H](Cc2cccnc2)N(C)C(=O)[C@H](CCCNC(=N)N)NC(=O)[C@H](Cc2ccc(C(=O)O)cc2)NC(=O)[C@H](Cc2cccc(OCC(=O)O)c2)NC(=O)CN(C)C(=O)[C@H]([C@@H](C)CC)NC(=O)[C@H](Cc2ccccc2)N(C)C(=O)[C@H](Cc2ccc(O)cc2)NC(=O)[C@H](Cc2c[nH]c3ccccc23)NC(=O)[C@H](C)NC(=O)[C@H](C)NC(=O)CSC[C@H](C(=O)O)NC(=O)[C@H](Cc2ccccc2)N(C)C(=O)[C@H](C)N(C)C1=O [Myostatin_99_v211] ({CH2CO}-AAWY[NMeF]I[Sar][Phe(3-OCH2COOH)][Phe(4-COOH)]R[NMe3Pal][X1][NMeA][NMeF][dC]-OH; thioether N-15) | 211
2 | 6.56 | 8.48 | CCCCCCC[C@@H]1NC(=O)[C@H](Cc2ccccc2)NC(=O)[C@H](CCCNC(=N)N)NC(=O)[C@H](Cc2ccc(C(=O)O)cc2)NC(=O)[C@H](Cc2cccc(OCC(=O)O)c2)NC(=O)CN(C)C(=O)[C@H]([C@@H](C)CC)NC(=O)[C@H](Cc2ccccc2)N(C)C(=O)[C@H](Cc2ccc(O)cc2)NC(=O)[C@H](Cc2c[nH]c3ccccc23)NC(=O)[C@H](C)NC(=O)[C@H](C)NC(=O)CSC[C@H](C(=O)O)NC(=O)[C@H](Cc2ccccc2)N(C)C(=O)[C@H](C)N(C)C1=O [Myostatin_99_v212] ({CH2CO}-AAWY[NMeF]I[Sar][Phe(3-OCH2COOH)][Phe(4-COOH)]RF[X1][NMeA][NMeF][dC]-OH; thioether N-15) | 84
3 | 5.88 | 8.18 | CCCCCCC[C@@H]1NC(=O)[C@H](Cc2ccccc2)N(C)C(=O)[C@H](CCCNC(=N)N)NC(=O)[C@H](Cc2ccc(C(=O)O)cc2)NC(=O)[C@H](Cc2cccc(OCC(=O)O)c2)NC(=O)CN(C)C(=O)[C@H]([C@@H](C)CC)NC(=O)[C@H](Cc2ccccc2)N(C)C(=O)[C@H](Cc2ccc(O)cc2)NC(=O)[C@H](Cc2c[nH]c3ccccc23)NC(=O)[C@H](C)NC(=O)[C@H](C)NC(=O)CSC[C@H](C(=O)O)NC(=O)[C@H](Cc2cccnc2)N(C)C(=O)[C@H](C)N(C)C1=O [Myostatin_99_v214] ({CH2CO}-AAWY[NMeF]I[Sar][Phe(3-OCH2COOH)][Phe(4-COOH)]R[NMeF][X1][NMeA][NMe3Pal][dC]-OH; thioether N-15) | 201
4 | 6.69 | 8.72 | CCCCCCC[C@@H]1NC(=O)[C@H](Cc2ccccc2)N(C)C(=O)[C@H](CCCNC(=N)N)NC(=O)[C@H](Cc2ccc(C(=O)O)cc2)NC(=O)[C@H](Cc2cccc(OCC(=O)O)c2)NC(=O)CN(C)C(=O)[C@H]([C@@H](C)CC)NC(=O)[C@H](Cc2ccccc2)N(C)C(=O)[C@H](Cc2ccc(O)cc2)NC(=O)[C@H](Cc2c[nH]c3ccccc23)NC(=O)[C@H](C)NC(=O)[C@H](C)NC(=O)CSC[C@@H](C(=O)O)NC(=O)[C@H](Cc2ccccc2)N(C)C(=O)[C@H](C)N(C)C1=O [Myostatin_99_v215] ({CH2CO}-AAWY[NMeF]I[Sar][Phe(3-OCH2COOH)][Phe(4-COOH)]R[NMeF][X1][NMeA][NMeF]C-OH; thioether N-15) | 106

Second part, the compound before the results:

Row | SMILES | pIC50 [1] | pIC50 [2] | Selectivity [3]
5 | CCCCCCCC[C@@H]1NC(=O)[C@H](Cc2ccccc2)N(C)C(=O)[C@H](CCCNC(=N)N)NC(=O)[C@H](Cc2ccc(C(=O)O)cc2)NC(=O)[C@H](Cc2cccc(OCC(=O)O)c2)NC(=O)[C@H](C)N(C)C(=O)[C@H]([C@@H](C)CC)NC(=O)[C@H](Cc2ccccc2)N(C)C(=O)[C@H](Cc2ccc(O)cc2)NC(=O)[C@H](Cc2c[nH]c3ccccc23)NC(=O)[C@H](C)NC(=O)CN(CCCC(=O)O)C(=O)CSC[C@H](C(=O)O)NC(=O)[C@H](Cc2ccccc2)N(C)C(=O)[C@H](C)N(C)C1=O [Myostatin_99_v199] ({CH2CO}-[Gly(N(CH2)3COOH)]AWY[NMeF]I[NMeA][Phe(3-OCH2COOH)][Phe(4-COOH)]R[NMeF][Gly(octyl)][NMeA][NMeF][dC]-OH; thioether N-15) | 6.80 | 8.92 | 133
6 | CCCCCCCC[C@@H]1NC(=O)[C@H](Cc2ccccc2)N(C)C(=O)[C@H](CCCNC(=N)N)NC(=O)[C@H](Cc2ccc(C(=O)O)cc2)NC(=O)[C@H](Cc2cccc(OCC(=O)O)c2)NC(=O)CN(C)C(=O)[C@H]([C@@H](C)CC)NC(=O)[C@H](Cc2ccccc2)N(C)C(=O)[C@H](Cc2ccc(O)cc2)NC(=O)[C@H](Cc2c[nH]c3ccccc23)NC(=O)[C@H](C)NC(=O)CN(CCCC(=O)O)C(=O)CSC[C@H](C(=O)O)NC(=O)[C@H](Cc2ccccc2)N(C)C(=O)[C@H](C)N(C)C1=O [Myostatin_99_v200] ({CH2CO}-[Gly(N(CH2)3COOH)]AWY[NMeF]I[Sar][Phe(3-OCH2COOH)][Phe(4-COOH)]R[NMeF][Gly(octyl)][NMeA][NMeF][dC]-OH; thioether N-15) | 6.63 | 9.00 | 233
7 | CCCCC[C@@H]1NC(=O)[C@H](Cc2ccccc2)N(C)C(=O)[C@H](CCCNC(=N)N)NC(=O)[C@H](Cc2ccc(C(=O)O)cc2)NC(=O)[C@H](Cc2cccc(OCC(=O)O)c2)NC(=O)CN(C)C(=O)[C@H]([C@@H](C)CC)NC(=O)[C@H](Cc2ccccc2)N(C)C(=O)[C@H](Cc2ccc(O)cc2)NC(=O)[C@H](Cc2c[nH]c3ccccc23)NC(=O)[C@H](C)NC(=O)[C@H](C)NC(=O)CSC[C@H](C(=O)O)NC(=O)[C@H](Cc2ccccc2)N(C)C(=O)[C@H](C)N(C)C1=O [Myostatin_99_v201] ({CH2CO}-AAWY[NMeF]I[Sar][Phe(3-OCH2COOH)][Phe(4-COOH)]R[NMeF][Ahp(2)][NMeA][NMeF][dC]-OH; thioether N-15) | 5.65 | 8.07 | 262
8 | CCCCCC[C@@H]1NC(=O)[C@H](Cc2ccccc2)N(C)C(=O)[C@H](CCCNC(=N)N)NC(=O)[C@H](Cc2ccc(C(=O)O)cc2)NC(=O)[C@H](Cc2cccc(OCC(=O)O)c2)NC(=O)CN(C)C(=O)[C@H]([C@@H](C)CC)NC(=O)[C@H](Cc2ccccc2)N(C)C(=O)[C@H](Cc2ccc(O)cc2)NC(=O)[C@H](Cc2c[nH]c3ccccc23)NC(=O)[C@H](C)NC(=O)[C@H](C)NC(=O)CSC[C@H](C(=O)O)NC(=O)[C@H](Cc2ccccc2)N(C)C(=O)[C@H](C)N(C)C1=O [Myostatin_99_v207] ({CH2CO}-AAWY[NMeF]I[Sar][Phe(3-OCH2COOH)][Phe(4-COOH)]R[NMeF][Aoc(2)][NMeA][NMeF][dC]-OH; thioether N-15) | 6.57 | 8.46 | 77
9 | CCCCCCC[C@@H]1NC(=O)[C@H](Cc2ccccc2)N(C)C(=O)[C@H](CCCNC(=N)N)NC(=O)[C@H](Cc2ccc(C(=O)O)cc2)NC(=O)[C@H](Cc2cccc(OCC(=O)O)c2)NC(=O)CN(C)C(=O)[C@H]([C@@H](C)CC)NC(=O)[C@H](Cc2ccccc2)NC(=O)[C@H](Cc2ccc(O)cc2)NC(=O)[C@H](Cc2c[nH]c3ccccc23)NC(=O)[C@H](C)NC(=O)[C@H](C)NC(=O)CSC[C@H](C(=O)O)NC(=O)[C@H](Cc2ccccc2)N(C)C(=O)[C@H](C)N(C)C1=O [Myostatin_99_v209] ({CH2CO}-AAWYFI[Sar][Phe(3-OCH2COOH)][Phe(4-COOH)]R[NMeF][X1][NMeA][NMeF][dC]-OH; thioether N-15) | 6.10 | 8.27 | 147

Reference: EP4786487A1, “PEPTIDE” (Peptidream Inc, priority 2023, dated 2025)
